Test results reported in patent US6685617B1, “Inhibitors of α4β1 mediated cell adhesion” (Pharmacia & Upjohn Company, priority 1998, dated 2004).

Tests used:
[1] = molecular target: T1, α4β1 integrin (Jurkat cell adhesion to immobilized CS-1 derived peptide CLHPGEILDVPST) (Homo sapiens, UniProt P05556+P13612); experiment: Jurkat-CS-1 assay; assay type: cell-based; details: Jurkat cells on CS-1 peptide coated plates; read-out: JK/CS-1 (Jurkat CS-1 Assay IC50 value range)
T1 construct: 100 μl of Jurkat cells (2.5×10^6 cells/ml) in DMEM plus BSA; host or cells: Jurkat T-cell line
T1 sequence (P13612 34-1032): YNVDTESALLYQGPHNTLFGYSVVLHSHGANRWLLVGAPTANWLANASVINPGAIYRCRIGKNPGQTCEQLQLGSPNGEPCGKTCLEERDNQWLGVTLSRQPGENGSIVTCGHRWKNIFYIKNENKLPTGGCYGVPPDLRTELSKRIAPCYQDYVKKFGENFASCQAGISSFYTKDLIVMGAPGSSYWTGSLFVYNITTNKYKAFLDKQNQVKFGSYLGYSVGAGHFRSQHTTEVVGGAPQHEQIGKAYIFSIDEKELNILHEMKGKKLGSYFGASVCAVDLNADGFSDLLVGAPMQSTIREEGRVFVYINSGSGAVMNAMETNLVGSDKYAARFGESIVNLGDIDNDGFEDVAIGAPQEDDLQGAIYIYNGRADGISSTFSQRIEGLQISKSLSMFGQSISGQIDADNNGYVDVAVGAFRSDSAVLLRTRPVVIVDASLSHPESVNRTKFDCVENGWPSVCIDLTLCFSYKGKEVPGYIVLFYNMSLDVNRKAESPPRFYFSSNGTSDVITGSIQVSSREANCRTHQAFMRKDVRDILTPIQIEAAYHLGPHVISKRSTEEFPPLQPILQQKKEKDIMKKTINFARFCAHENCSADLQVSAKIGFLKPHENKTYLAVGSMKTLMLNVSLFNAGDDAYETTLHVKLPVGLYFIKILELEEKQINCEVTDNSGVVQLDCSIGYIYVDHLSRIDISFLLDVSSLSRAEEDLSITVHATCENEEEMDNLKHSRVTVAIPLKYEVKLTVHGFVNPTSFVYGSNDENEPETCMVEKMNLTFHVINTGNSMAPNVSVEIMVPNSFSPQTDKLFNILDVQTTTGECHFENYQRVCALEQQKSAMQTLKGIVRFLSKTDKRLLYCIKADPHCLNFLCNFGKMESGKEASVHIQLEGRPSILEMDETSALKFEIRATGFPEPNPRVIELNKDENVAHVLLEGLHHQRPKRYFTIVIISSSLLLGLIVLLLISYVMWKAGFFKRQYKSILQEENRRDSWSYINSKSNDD
T1 sequence (P05556 21-798): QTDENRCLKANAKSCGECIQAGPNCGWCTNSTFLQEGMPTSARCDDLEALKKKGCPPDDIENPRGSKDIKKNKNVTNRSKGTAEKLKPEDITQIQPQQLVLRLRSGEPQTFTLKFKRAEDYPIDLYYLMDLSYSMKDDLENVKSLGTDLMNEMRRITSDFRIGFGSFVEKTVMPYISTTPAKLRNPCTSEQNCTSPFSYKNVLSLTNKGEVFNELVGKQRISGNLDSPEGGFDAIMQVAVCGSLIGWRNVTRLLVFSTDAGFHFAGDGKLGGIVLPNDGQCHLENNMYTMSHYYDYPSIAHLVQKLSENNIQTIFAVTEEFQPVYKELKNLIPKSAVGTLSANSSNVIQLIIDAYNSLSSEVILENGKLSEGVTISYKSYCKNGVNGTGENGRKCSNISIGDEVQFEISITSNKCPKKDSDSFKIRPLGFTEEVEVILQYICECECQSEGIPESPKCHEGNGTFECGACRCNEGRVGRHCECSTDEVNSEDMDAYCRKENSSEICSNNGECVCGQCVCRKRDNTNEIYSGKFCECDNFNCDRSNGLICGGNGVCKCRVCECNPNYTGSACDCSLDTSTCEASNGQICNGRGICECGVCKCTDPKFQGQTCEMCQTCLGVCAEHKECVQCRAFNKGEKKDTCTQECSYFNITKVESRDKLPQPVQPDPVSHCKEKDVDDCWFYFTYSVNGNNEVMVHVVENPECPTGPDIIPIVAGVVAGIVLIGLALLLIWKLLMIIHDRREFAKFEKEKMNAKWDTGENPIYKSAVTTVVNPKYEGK
Method in brief: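 CS-1 peptide was SPDP-crosslinked onto HSA-coated plates and blocked with BSA. Jurkat cells (2.5×10^6 cells/ml) in DMEM/BSA were mixed with compound, generally at 100, 20, 5 and 1.25 μM, and allowed to adhere for 1 hr at 37° C. Bound cells were fixed, stained with toluidine blue and quantified by OD590.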

[2] = molecular target: T2, α4β1 integrin (Jurkat T-cell adhesion to IL-1 stimulated endothelial cell monolayers) (Homo sapiens, UniProt P05556+P13612); experiment: Jurkat-endothelial cell adhesion assay (Jurkat EC); assay type: cell-based; details: Jurkat cells on IL-1 stimulated human umbilical vein endothelial cells; read-out: JK/EC (Jurkat EC Assay IC50 value range)
T2 construct: a T-cell line, Jurkat, known to express the α4β1 integrin; host or cells: Jurkat T-cell line
T2 sequence (P13612 34-1032): as the sequence (P13612 34-1032) above
T2 sequence (P05556 21-798): as the sequence (P05556 21-798) above
Method in brief: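 Adhesion was expressed as percent of compound-free fluorescence after 20 min at 37° C (following 5 min settling on ice) of BCECF-loaded Jurkat T cells on washed HUVEC monolayers. The endothelium, passage 6 or lower, had received 0.1 ng/ml recombinant IL-1 for 4 hr at 37° C; compound was premixed with the T cells, typically at 100, 20, 5 and 1.25 μM.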

| Compound | IC50 [1] [nM] | IC50 [2] [nM] |
| --- | --- | --- |
| O=C(O)c1ccc(C(=O)N2CSC[C@H]2C(=O)N[C@@H](Cc2ccc(NC(=O)c3c(Cl)cccc3Cl)cc2)C(=O)O)nc1 [Example 241] | 50 to 750 | ≥ 1000 |
| O=C(Nc1ccc(C[C@H](NC(=O)[C@@H]2CSCN2C(=O)c2cc(O)c3ccccc3n2)C(=O)O)cc1)c1c(Cl)cccc1Cl [Example 242] | 50 to 750 | ≥ 1000 |
| O=C(O)c1cc(C(=O)N2CSC[C@H]2C(=O)N[C@@H](Cc2ccc(NC(=O)c3c(Cl)cccc3Cl)cc2)C(=O)O)n[nH]1 [Example 243] | 50 to 750 | 250 to 1000 |
| O=C(Nc1ccc(C[C@H](NC(=O)[C@@H]2CSCN2C(=O)C2NC(C(=O)O)CS2)C(=O)O)cc1)c1c(Cl)cccc1Cl (stereo partly drawn) [Example 244] | 50 to 750 | 250 to 1000 |
| O=C(Nc1ccc(C[C@H](NC(=O)[C@@H]2CSCN2C(=O)C2CCCO2)C(=O)O)cc1)c1c(Cl)cccc1Cl (stereo partly drawn) [Example 245] | 50 to 750 | ≤ 250 |
| O=C(Nc1ccc(C[C@H](NC(=O)[C@@H]2CSCN2C(=O)C2CCOC2)C(=O)O)cc1)c1c(Cl)cccc1Cl (stereo partly drawn) [Example 246] | 50 to 750 | 250 to 1000 |
| O=C(O)/C=C/C(=O)N1CCCC[C@@H]1C(=O)N[C@@H](Cc1ccc(NC(=O)c2c(Cl)cccc2Cl)cc1)C(=O)O [Example 248] | 50 to 750 | 250 to 1000 |
| COCCC(=O)N1CCCC[C@@H]1C(=O)N[C@@H](Cc1ccc(NC(=O)c2c(Cl)cccc2Cl)cc1)C(=O)O [Example 249] | 50 to 750 | 250 to 1000 |
| O=C(O)c1cccc(C(=O)N2CCCC[C@@H]2C(=O)N[C@@H](Cc2ccc(NC(=O)c3c(Cl)cccc3Cl)cc2)C(=O)O)n1 [Example 251] | ≤ 50 | ≤ 250 |
| O=C(Nc1ccc(C[C@H](NC(=O)[C@H]2CCCCN2C(=O)c2cccnc2)C(=O)O)cc1)c1c(Cl)cccc1Cl [Example 252] | ≤ 50 | ≤ 250 |

Continued, values first:

| IC50 [1] [nM] | IC50 [2] [nM] | Compound |
| --- | --- | --- |
| 50 to 750 | ≤ 250 | O=C(Nc1ccc(C[C@H](NC(=O)[C@H]2CCCCN2C(=O)C2CCCO2)C(=O)O)cc1)c1c(Cl)cccc1Cl (stereo partly drawn) [Example 253] |
| 50 to 750 | 250 to 1000 | O=C(O)CCC(=O)N1CCC[C@@H]1C(=O)N[C@@H](Cc1ccc(NC(=O)c2c(Cl)cccc2Cl)cc1)C(=O)O [Example 254] |
| 50 to 750 | ≥ 1000 | O=C(O)/C=C/C(=O)N1CCC[C@@H]1C(=O)N[C@@H](Cc1ccc(NC(=O)c2c(Cl)cccc2Cl)cc1)C(=O)O [Example 255] |
| ≤ 50 | ≤ 250 | COCCC(=O)N1CCC[C@@H]1C(=O)N[C@@H](Cc1ccc(NC(=O)c2c(Cl)cccc2Cl)cc1)C(=O)O [Example 256] |
| 50 to 750 | 250 to 1000 | O=C(O)c1cncc(C(=O)N2CCC[C@@H]2C(=O)N[C@@H](Cc2ccc(NC(=O)c3c(Cl)cccc3Cl)cc2)C(=O)O)c1 [Example 257] |
| ≤ 50 | ≤ 250 | O=C(O)c1cccc(C(=O)N2CCC[C@@H]2C(=O)N[C@@H](Cc2ccc(NC(=O)c3c(Cl)cccc3Cl)cc2)C(=O)O)n1 [Example 258] |
| 50 to 750 | ≤ 250 | O=C(Nc1ccc(C[C@H](NC(=O)[C@H]2CCCN2C(=O)c2cccnc2)C(=O)O)cc1)c1c(Cl)cccc1Cl [Example 259] |
| 50 to 750 | 250 to 1000 | O=C(Nc1ccc(C[C@H](NC(=O)[C@H]2CCCN2C(=O)C2CCCO2)C(=O)O)cc1)c1c(Cl)cccc1Cl (stereo partly drawn) [Example 260] |
| 50 to 750 | 250 to 1000 | O=C(O)/C=C/C(=O)N1CSC[C@@H]1C(=O)N[C@@H](Cc1ccc(NC(=O)c2c(Cl)cccc2Cl)cc1)C(=O)O [Example 261] |
| ≤ 50 | ≤ 250 | COCCC(=O)N1CSC[C@@H]1C(=O)N[C@@H](Cc1ccc(NC(=O)c2c(Cl)cccc2Cl)cc1)C(=O)O [Example 262] |
| 50 to 750 | 250 to 1000 | O=C(O)c1cncc(C(=O)N2CSC[C@@H]2C(=O)N[C@@H](Cc2ccc(NC(=O)c3c(Cl)cccc3Cl)cc2)C(=O)O)c1 [Example 263] |
